Laboratory results taken from article PMC4869175, “Evidence that phytochrome functions as a protein kinase in plant light signalling” (Nature Communications, 2016).

Tests used:
[1] = molecular target: T1, photosensory core of AsphyA (66-610) (Avena sativa, UniProt P06593); assay: Photoaffinity labelling of the photosensory core with 8-azido-ATP and competition by unlabeled ATP; format: binding; details: 10 μM 8-azido-ATP
T1 construct: the PAS-GAF-PHY photosensory core (66–610aa) were also cloned into pPIC3.5K; made in house; host or cells: Pichia pastoris GS115
T1 sequence (P06593 66-610): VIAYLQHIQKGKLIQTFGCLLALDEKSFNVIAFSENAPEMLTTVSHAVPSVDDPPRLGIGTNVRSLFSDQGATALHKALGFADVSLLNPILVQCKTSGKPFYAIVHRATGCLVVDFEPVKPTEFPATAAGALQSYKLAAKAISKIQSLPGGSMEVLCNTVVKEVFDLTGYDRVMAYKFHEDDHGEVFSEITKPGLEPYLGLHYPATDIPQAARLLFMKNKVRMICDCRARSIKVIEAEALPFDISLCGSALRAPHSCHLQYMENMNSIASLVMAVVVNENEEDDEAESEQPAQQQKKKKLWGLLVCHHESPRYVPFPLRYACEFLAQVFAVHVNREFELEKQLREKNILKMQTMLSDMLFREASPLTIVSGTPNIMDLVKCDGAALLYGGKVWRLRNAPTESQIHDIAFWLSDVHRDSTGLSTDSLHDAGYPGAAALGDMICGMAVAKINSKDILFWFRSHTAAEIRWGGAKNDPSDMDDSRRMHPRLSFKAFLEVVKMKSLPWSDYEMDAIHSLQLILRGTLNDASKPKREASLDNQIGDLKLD
Description: To investigate ATP-binding to AsphyA proteins, photoaffinity labelling experiments were carried out using 8-N3-ATP-biotin-long chain-hydrazone (8-azido-ATP), which were purchased from Affinity Labeling Technologies, Inc. Purified phytochrome proteins (1.0 μg) were pre-incubated for 30 min on ice in 50 μl of photoaffinity labelling buffer (20 mM Tris-HCl, pH 7.0, 2 mM EDTA, 2 mM MgCl2 and 150 μM ATP), and then 8-azido-ATP was applied with indicated concentrations. After incubation for 5 more min on ice, ultraviolet light at 254 nm was then irradiated for 90 s using a hand-held ultraviolet lamp at 4 cm from the surface of the reaction mixtures. Immediately after photoaffinity labelling, reactions were stopped by adding SDS sample buffer, and the 8-azido-ATP-labelled phytochromes were detected with 1:2,000 avidin-HRP (A-115, Boston Biochem). After development, the images were scanned and opened by ImageJ, a Java-based image-processing software, to quantitate the photoaffinity labelling with azido-ATP analogues. Background signal was subtracted before normalization. […]
Supplementary Figure 11. […] 8-azido-ATP labeled proteins were then detected using avidin-HRP. […] The band intensities were quantified using ImageJ software, and the percentages of 8-azido-ATP labeling were normalized to the 66-610 protein signals. […]

[2] = molecular target: T2, D422R AsphyA mutant (Avena sativa, UniProt P06593, D422R); assay: Binding parameters of ATP by Scatchard plot using BODIPY-FL-ATP; details: Scatchard plot with BODIPY-FL-ATP; result in words
T2 construct: After preparing purified full-length AsphyA mutants; made in house; host or cells: Pichia pastoris GS115
Description: (§1) To estimate dissociation constant (Kd) and the number of binding sites (n) of ATP in AsphyA proteins, an ATP analogue BODIPY-FL-ATP (BODIPY FL 2′-(or-3′)-O-(N-(2-aminoethyl)urethane) adenosine triphosphate; Molecular Probes) was used. 0.5 μM AsphyA proteins were incubated with increasing concentration of BODIPY-FL-ATP (0.5–5 μM) for 10 min at 30 °C, and free (unbound) ATP analogue was separated from the ATP analogue-protein complex by using Amicon Ultra Centrifugal Filter with MWCO of 10,000 Da for 5 min at 4,000g. The spectrophotometric absorbance was then measured to determine the BODIPY-FL-ATP concentrations within flow-through and the complex solutions by using Shimadzu UV-1800 spectrophotometer. […] The concentrations of BODIPY-FL-ATP were also double-checked by measuring the emission intensity of BODIPY fluorophore at the excitation wavelength of 500 nm and emission wavelength of 515 nm. The fluorescence of free BODIPY-FL-ATP in the absence of any protein component was used as a linear standard curve. The Kd and n values were then calculated by a Scatchard plot of r/[BODIPY-FL-ATP]free versus r, where r is the molar ratio of [BODIPY-FL-ATP]bound to [AsphyA]total.
(§2) Supplementary Figure 12. Determination of binding parameters of ATP in AsphyA proteins. The number of binding sites (n) and dissociation constant (Kd) of ATP in AsphyA proteins were determined by Scatchard plots using an ATP analogue, BODIPY-FL-ATP (BODIPY® FL 2′-(or-3′)-O-(N-(2-aminoethyl)urethane) adenosine triphosphate). The n and Kd values were calculated from the slopes (-1/Kd) and x-axis intercepts (n) of the Scatchard plot of r/[BODIPY-FL-ATP]free versus r, where r was the molar ratio of [BODIPY-FL-ATP]bound to [AsphyA]total. The n values of full-length (FL) AsphyA and photosensory core (66-610) were both calculated at around one per polypeptide, and the Kd values were calculated at approximately 0.87 × 10^-6 M for FL-AsphyA, 0.72 × 10^-6 M for […]
(§3) level, possibly due to too low ATP binding.
(§4) (1 picture or pasted object on this page, not shown here)

[3] = molecular target: T3, K411L AsphyA mutant (Avena sativa, UniProt P06593, K411L); assay: as above
T3 construct: After preparing purified full-length AsphyA mutants; made in house; host or cells: Pichia pastoris GS115
Description: as §1, §2, §3, §4

T2 sequence (P06593 whole entry D422R): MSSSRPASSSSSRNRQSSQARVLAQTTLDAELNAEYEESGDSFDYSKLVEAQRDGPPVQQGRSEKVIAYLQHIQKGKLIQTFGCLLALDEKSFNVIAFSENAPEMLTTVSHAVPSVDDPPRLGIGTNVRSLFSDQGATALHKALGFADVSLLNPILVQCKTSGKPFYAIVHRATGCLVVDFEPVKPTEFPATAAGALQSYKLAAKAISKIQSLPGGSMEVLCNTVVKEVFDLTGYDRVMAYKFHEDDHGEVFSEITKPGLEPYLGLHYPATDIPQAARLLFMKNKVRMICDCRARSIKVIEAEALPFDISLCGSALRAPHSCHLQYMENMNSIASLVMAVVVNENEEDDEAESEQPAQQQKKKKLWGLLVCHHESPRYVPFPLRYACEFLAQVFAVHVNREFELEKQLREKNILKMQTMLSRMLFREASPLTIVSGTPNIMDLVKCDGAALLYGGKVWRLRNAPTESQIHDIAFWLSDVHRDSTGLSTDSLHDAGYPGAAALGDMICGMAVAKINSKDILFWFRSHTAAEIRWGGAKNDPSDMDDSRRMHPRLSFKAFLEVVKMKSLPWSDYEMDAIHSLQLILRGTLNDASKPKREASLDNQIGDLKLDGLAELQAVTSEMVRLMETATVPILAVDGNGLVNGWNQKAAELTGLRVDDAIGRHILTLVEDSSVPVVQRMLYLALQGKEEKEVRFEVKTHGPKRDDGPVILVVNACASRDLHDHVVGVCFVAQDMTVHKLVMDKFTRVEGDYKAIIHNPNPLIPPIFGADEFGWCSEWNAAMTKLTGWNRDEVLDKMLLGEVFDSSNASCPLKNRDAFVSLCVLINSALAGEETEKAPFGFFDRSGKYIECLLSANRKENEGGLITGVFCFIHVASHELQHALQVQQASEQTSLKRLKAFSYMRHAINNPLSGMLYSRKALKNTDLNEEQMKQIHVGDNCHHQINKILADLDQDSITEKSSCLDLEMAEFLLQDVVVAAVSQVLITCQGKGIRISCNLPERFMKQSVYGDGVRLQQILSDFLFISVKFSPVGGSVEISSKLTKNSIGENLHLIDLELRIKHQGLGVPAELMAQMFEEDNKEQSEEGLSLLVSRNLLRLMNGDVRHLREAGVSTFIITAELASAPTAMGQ
T3 sequence (P06593 whole entry K411L): as the sequence (P06593 whole entry D422R) above, with K411L, R422D counted along it

Compound	photoaffinity labelling of the photosensory core ([1]; UV 90 s, Pr and Pfr forms)	dissociation constant (Kd) of ATP [2]	Kd [3] [nM]	concentration of unlabeled ATP that inhibited 8-azido-ATP photoaffinity labeling ([1]; unlabeled ATP 0-30 mM)
8-N3-ATP-biotin-long chain-hydrazone [8-azido-ATP]	labelled	–	–	–
Nc1ncnc2c1ncn2[C@@H]1O[C@H](COP(=O)(O)OP(=O)(O)OP(=O)(O)O)[C@@H](O)[C@H]1O [ATP]	–	could not obtain the Kd value at micromolar level	~1320	approximately 7.5 mM
